Assay results published in ChEMBL document CHEMBL6134907, “Synthesis of 5,9- and 5,8-Diaminoalkoxy Substituted Benzophenanthridinone Analogues as Tyrosyl-DNA Phosphodiesterase 1 Inhibitors and Their Radiosensitizing Activity” (J Med Chem, 2025).
The source made the active and inactive calls. The rule behind the calls is not given here.

Tests used:
[1] = Tmax in male Sprague-Dawley rat at 1 mg/kg, iv measured up to 24 hrs by LCMS-MS analysis; assay type: ADME, organism-based; details: in vivo
HCT-116 [2] = experiment: Cytotoxicity against human HCT116 cells assessed as cell killing at 0.5 uM relative to control; assay type: functional
HCT-116 [3] = experiment: In vivo radiosensitizing activity in human HCT-116 cells xenografted in BALB/c mouse assessed as sensitization of 1 GY ionizing radiation induced reduction in tumor weight at 10 mg/kg, ip every day for 14 days radiated for every 2 days once (reference value: 35%); assay type: functional; set-up: scale not given: the % may be the effect or the level left; details: time 14 day
HGC-27 = experiment: Radiosensitizing activity in human HGC-27 cells assessed as sensitization of 2 GY ionizing radiation induced decrease in cell survival by colony formation assay; assay type: functional, cell-based
HCT-116 [4] = experiment: Induction of cell cycle arrest in human HCT-116 cells assessed as accumulation of cells at G2/M phase at 10 uM measured after 24 hrs by Propidium iodide (PI) staining based assay (reference value: 15.77%); assay type: functional
[5] = tested on: Tyrosyl-DNA phosphodiesterase 1/Deoxyribonucleic acid; experiment: Stabilization of TDP1/DNA complex in human HCT-116 cells at 100 uM ionizing radiation with 4 GY by Cellular Thermal Shift Assay (CETSA); assay type: cell-based
[6] = biological target: T1, Tyrosyl-DNA phosphodiesterase 1 (Homo sapiens, UniProt Q9NUW8); experiment: Inhibition of recombinant TDP1 (unknown origin) assessed as substrate cleavage using 5'-Cy5-GATCTAAAAGACTT-pY-3' DNA substrate measured after 15 mins by gel-based assay
HCT-116 [7] = experiment: Reduction in recruitment of XRCC4 at damage site of human HCT-116 cells at 5 uM measured after 3 hrs by fluorescence colocalization assay; assay type: functional, cell-based
HCT-116 [8] = experiment: Effect on ROS generation in human HCT-116 cells assessed as increase in intracellular ROS level at 5 to 10 uM measured after 20 mins by ELIASA analysis; assay type: functional, cell-based; details: dose 5-10 µM
[9] = Toxicity in BALB/c mouse xenografted with human HCT-116 cells assessed as change in liver weight at 1 to 10 mg/kg, ip every day for 14 days; assay type: organism-based; details: in vivo, 336 h, dose 1-10 mg/kg, time 14 day
HCT-116 [10] = experiment: Induction of cell cycle arrest in human HCT-116 cells assessed as accumulation of cells at S phase at 5 uM measured after 24 hrs by Propidium iodide (PI) staining based assay (reference value: 13.96%); assay type: functional
HCT-116 [11] = experiment: Induction of 4GY ionizing radiation (IR) induced apoptosis in human HCT-116 cells assessed as viable cells at 10 uM measured after 24 hrs by FITC Annexin V/PI apoptosis detection assay (reference value: 66.88%); assay type: functional; details: read-out: Activity
[12] = biological target: T1, Tyrosyl-DNA phosphodiesterase 1; experiment: Binding affinity to TDP1 in human HCT-116 cells assessed as increase in thermal stability by Cellular Thermal Shift Assay (CETSA); assay type: cell-based
HCT-116 [13] = experiment: Reduction of XRCC4 expression in wild type human HCT-116 cells assessed as reduction in mRNA level at 5 to 10 uM radiated with 4 GY ionizing radiation (IR) measured after 24 hrs by qRT-PCR analysis; assay type: functional, cell-based; details: dose 5-10 µM
[14] = Induction of 4GY ionizing radiation (IR) induced cell cycle arrest in human HCT-116 cells assessed as accumulation of cells at S phase at 10 uM measured after 24 hrs by Propidium iodide (PI) staining based assay (reference value: 11.48%); assay type: functional
HCT-116 [15] = experiment: Induction of apoptosis in human HCT-116 cells assessed as early apoptotic cells at 10 uM measured after 24 hrs by FITC Annexin V/PI apoptosis detection assay (reference value: 0.26%); assay type: functional
[16] = Toxicity in BALB/c mouse xenografted with human HCT-116 cells assessed as change in lung weight at 1 to 10 mg/kg, ip every day for 14 days radiated for every 2 days once; assay type: organism-based; details: in vivo, 336 h, dose 1-10 mg/kg, time 14 day
[17] = Suppression of ionizing radiation (IR) induced DNA damage in human SgTDP1-HCT-116 cells (TDP1 knockout) assessed as NHEJ repair activity by measuring GFP positive cells at 1 uM measured after 24 hrs by flow cytometry (reference value: 100%); assay type: functional
HCT-116 [18] = experiment: Effect on Ku70/80 expression in wild type human HCT-116 cells assessed as change in mRNA level at 5 to 10 uM radiated with 4 GY ionizing radiation (IR) measured after 24 hrs by qRT-PCR analysis; assay type: functional, cell-based; details: dose 5-10 µM
HCT-116 [19] = experiment: Downregulation of cell cycle pathway in human HCT-116 cells at 5 uM measured after 24 hrs by KEGG analysis; assay type: functional, cell-based
HCT-116 [20] = experiment: In vivo radiosensitizing activity in human HCT-116 cells xenografted in BALB/c mouse assessed as sensitization of 1 GY ionizing radiation induced tumor growth inhibition at 10 mg/kg, ip every day for 14 days radiated for every 2 days once; assay type: functional, organism-based; details: time 14.0 day
HCT-116 [21] = experiment: Effect on Lig4 expression in wild type human HCT-116 cells assessed as change in protein level at 5 to 10 uM measured after 24 hrs by Western blot analysis; assay type: functional, cell-based; details: dose 5-10 µM
HCT-116 [22] = experiment: Induction of cell cycle arrest in human HCT-116 cells assessed as accumulation of cells at G0/G1 phase at 5 uM measured after 24 hrs by Propidium iodide (PI) staining based assay (reference value: 69.35%); assay type: functional
HCT-116 [23] = experiment: Induction of 4GY ionizing radiation (IR) induced ROS production in human HCT-116 cells assessed as mitochondrial dysfunction by measuring mitochondrial membrane potential loss at 10 uM measured after 24 hrs by JC-1 staining analysis; assay type: functional, cell-based
[24] = Toxicity in BALB/c mouse xenografted with human HCT-116 cells assessed as change in spleen weight at 1 to 10 mg/kg, ip every day for 14 days radiated for every 2 days once; assay type: organism-based; details: in vivo, 336 h, dose 1-10 mg/kg, time 14 day
HCT-116 [25] = experiment: Induction of apoptosis in human HCT-116 cells assessed as induction of 4GY ionizing radiation (IR) induced cleaved Caspase-7 at 5 uM measured after 24 hrs by Western blot analysis; assay type: functional, cell-based
HCT-116 [26] = experiment: Suppression of ionizing radiation (IR) induced DNA damage in human wild type HCT-116 cells assessed as HR repair activity by measuring GFP positive cells at 1 uM measured after 24 hrs by flow cytometry; assay type: functional, cell-based
HCT-116 [27] = experiment: Induction of apoptosis in human HCT-116 cells assessed as late apoptotic cells at 5 uM measured after 24 hrs by FITC Annexin V/PI apoptosis detection assay (reference value: 0%); assay type: functional
HCT-116 [28] = experiment: Induction of PIG3 transcription level in human HCT-116 cells measured after 24 hrs treated with 4 GY ionizing radiation (IR); assay type: functional, cell-based; details: dose 5-10 µM
HCT-116 [29] = experiment: Induction of 4GY ionizing radiation (IR) induced ROS production in human HCT-116 cells assessed as mitochondrial dysfunction by measuring mitochondrial membrane potential loss at 10 uM measured after 24 hrs by flow cytometry; assay type: functional, cell-based
[30] = Acute toxicity in Kunming mouse assessed as survival at 150 to 600 mg/kg, ip single dose measured after 7 days; assay type: organism-based; details: in vivo, 168 h, dose 150-600 mg/kg, time 7 day
HCT-116 [31] = experiment: Induction of cell cycle arrest in human HCT-116 cells assessed as accumulation of cells at G0/G1 phase at 10 uM measured after 24 hrs by Propidium iodide (PI) staining based assay (reference value: 69.35%); assay type: functional

T1 sequence (Q9NUW8 whole entry): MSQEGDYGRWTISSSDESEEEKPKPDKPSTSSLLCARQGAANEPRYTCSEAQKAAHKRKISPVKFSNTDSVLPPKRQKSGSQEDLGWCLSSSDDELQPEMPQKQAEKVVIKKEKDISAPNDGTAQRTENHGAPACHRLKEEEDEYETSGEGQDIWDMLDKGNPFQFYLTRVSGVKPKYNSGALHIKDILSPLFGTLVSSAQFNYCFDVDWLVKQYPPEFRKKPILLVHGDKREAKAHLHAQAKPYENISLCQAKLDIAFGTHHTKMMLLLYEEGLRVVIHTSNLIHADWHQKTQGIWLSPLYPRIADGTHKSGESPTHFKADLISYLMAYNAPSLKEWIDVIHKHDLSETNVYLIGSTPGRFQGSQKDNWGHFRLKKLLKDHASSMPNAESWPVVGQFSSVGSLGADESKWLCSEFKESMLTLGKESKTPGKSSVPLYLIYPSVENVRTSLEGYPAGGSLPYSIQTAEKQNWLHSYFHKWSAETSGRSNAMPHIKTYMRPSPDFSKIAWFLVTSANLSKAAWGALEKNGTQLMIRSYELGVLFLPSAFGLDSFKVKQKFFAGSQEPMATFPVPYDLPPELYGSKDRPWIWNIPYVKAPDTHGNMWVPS

## COc1cc2c(=O)n(CCN(C)C)c3c4cc5c(cc4ccc3c2cc1OCCN1CCOCC1)OCO5
[1]
  Tmax: 4.98 min
HCT-116 [2]
  Activity: 11%
HCT-116 [3]
  Activity: 77%
HGC-27
  Activity: inactive
HCT-116 [4]
  Activity: 25.64%
[5]
  Activity: Active; Coincubation With Ionizing Radiation Showed Greater Complex Formation
[6]
  IC50: 7.8 µM
HCT-116 [7]
  Activity: Active
HCT-116 [8]
  Activity: inactive
[9]
  Activity: Non-toxic
HCT-116 [10]
  Activity: 10.9%
HCT-116 [11]
  viability at 10 µM: 55.5%
[12]
  Activity: Active; Thermal Melting Curve Of Tdp1 Protein Shifted Left
HCT-116 [13]
  Activity: Active
[14]
  Activity: 12.88%
HCT-116 [15]
  Activity: 13.24%
[16]
  Activity: Non-toxic
[17]
  Activity: 7%
HCT-116 [18]
  Activity: inactive
HCT-116 [19]
  Activity: Active
HCT-116 [20]
  TGI: Active
HCT-116 [21]
  Activity: inactive
HCT-116 [22]
  Activity: 69.89%
HCT-116 [23]
  Activity: Active
[24]
  Activity: Non-toxic
HCT-116 [25]
  Activity: Active
HCT-116 [26]
  Activity: inactive
HCT-116 [27]
  Activity: 5.99%
HCT-116 [28]
  Activity: Dose-dependent-effect
HCT-116 [29]
  Activity: Active
[30]
  Activity: Non-toxic
HCT-116 [31]
  Activity: 63.63%
